Columns and labels:
HL60 (leukemia) = assay: In vitro cytotoxic activity assay (MTT), HL60; format: cell-based; details: Homo sapiens, HL-60; HL60 (leukemia) cells, exposed for 96 hours; read-out: Cytotoxicity activity IC50 (50% inhibition of cell proliferation)
Protocol: (§1) Compounds 1-16 were screened for their in vitro cytotoxic activity utilizing a 3-(4,5-dimethyl-thiazol-2-yl)-2,5-diphenyltetrazolium bromide (MTT) assay against selected cancer human cell lines consisting of PC3 (prostate), HCT116 (colon), A375 (melanoma), H1299 (lung), MIAPaCa-2 (pancreas), HL60 (leukemia), MCF7 (breast), MDA-MB-231 (breast) (T. Mosmann, J. Immunol. Meth., 1983, 65, 55-63). The cells were cultured at 37° C. in RMPI1640 medium supplemented with 10% fetal bovine serum, 50 IU/mL penicillin, and 50 μg/mL streptomycin in a 5% CO2 incubator. All cells were sub-cultured 3 times/week by trypsinisation. Viable cells were seeded and allowed to adhere for 12 h before a test drug was added in 96-well plates at an initial density of 1.0×10^5 cells/mL. Tumor cell lines were separately exposed to various concentrations of the tested compounds followed by incubation at a temperature of 37° C. during 96 hours inside a medium of fresh RMPI 1640. Cells were subsequently incubated at 37° C. using MTT at 0.5 mg/mL during 4 hours. After removal of supernatant, formazan crystals were dissolved in isopropanol and the optical density was measured at 570 nm. CX-4945 was used as a positive control.

[1] = molecular target: T1, recombinant human CK2 (RRββ-holoenzyme) (Homo sapiens, UniProt P68400); assay: CK2 Kinase Assay (radiometric, [γ-33P] ATP); format: biochemical; details: final ATP concentration 15 μM, 10 min at 30° C., eight concentrations; read-out: protein kinase CK2 activity IC50
T1 construct: purchased Millipore
T1 sequence (P68400 whole entry): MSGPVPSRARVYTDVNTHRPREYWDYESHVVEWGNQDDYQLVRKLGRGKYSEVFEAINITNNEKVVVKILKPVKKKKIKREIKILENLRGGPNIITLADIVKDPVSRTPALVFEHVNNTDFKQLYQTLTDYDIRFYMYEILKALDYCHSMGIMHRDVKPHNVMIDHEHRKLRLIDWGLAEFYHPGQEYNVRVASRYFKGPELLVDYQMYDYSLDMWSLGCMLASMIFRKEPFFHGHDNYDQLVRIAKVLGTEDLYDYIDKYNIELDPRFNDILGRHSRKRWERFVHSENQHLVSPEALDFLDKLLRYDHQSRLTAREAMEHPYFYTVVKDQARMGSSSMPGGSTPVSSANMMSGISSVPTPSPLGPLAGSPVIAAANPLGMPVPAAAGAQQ
T1 sequence (P67870 whole entry partner): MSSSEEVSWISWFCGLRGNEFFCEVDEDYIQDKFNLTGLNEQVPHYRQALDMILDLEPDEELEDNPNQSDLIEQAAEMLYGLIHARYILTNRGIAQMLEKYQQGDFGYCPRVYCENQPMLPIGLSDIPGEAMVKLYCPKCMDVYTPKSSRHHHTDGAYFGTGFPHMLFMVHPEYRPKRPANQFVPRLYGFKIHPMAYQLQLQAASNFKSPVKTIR
Protocol: CK2 Kinase Assay was conducted using the protocol as described in Pierre F. et al; J. Med. Chem. 2011, 54, 635-654. The tested compounds in aqueous solution were added at a volume of 10 μL to a reaction mixture comprising 10 μL of assay dilution buffer (ADB; 20 mM MOPS, pH 7.2, 25 mM β-glycerol phosphate, 5 mM EGTA, 1 mM sodium orthovanadate, and 1 mM dithiothreitol), 10 μL of substrate peptide (RRRDDDSDDD, dissolved in ADB at a concentration of 1 mM), 10 μL of recombinant human CK2 (RRββ-holoenzyme, 25 ng dissolved in ADB; Millipore). Reactions were initiated by the addition of 10 μL of ATP solution (90% 75 mM MgCl2, 75 μM ATP (final ATP concentration:15 μM) dissolved in ADB; 10% [γ-33P] ATP (stock 1 mCi/100 μL; 3000 Ci/mmol (Perkin-Elmer) and maintained for 10 min at 30° C. The reactions were quenched with 100 μL of 0.75% phosphoric acid and then transferred to and filtered through a phosphor cellulose filter plate (Millipore). After washing each well five times with 0.75% phosphoric acid, the plate was dried under vacuum for 5 min and, following the addition of 15 μL of scintillation fluid to each well, the residual radioactivity was measured using a Wallac luminescence counter. The IC50 values were derived from eight concentrations of test inhibitors.

MIAPaCa-2 (pancreas) = assay: In vitro cytotoxic activity assay (MTT), MIAPaCa-2; format: cell-based; details: Homo sapiens, MIA PaCa-2; MIAPaCa-2 (pancreas) cells, exposed for 96 hours; read-out: Cytotoxicity activity IC50 (50% inhibition of cell proliferation)
Protocol: as §1

HCT116 (colon) = assay: In vitro cytotoxic activity assay (MTT), HCT116; format: cell-based; details: Homo sapiens, HCT-116; HCT116 (colon) cells, exposed for 96 hours; read-out: Cytotoxicity activity IC50 (50% inhibition of cell proliferation)
Protocol: as §1

PC3 (prostate) = assay: In vitro cytotoxic activity assay (MTT), PC3; format: cell-based; details: Homo sapiens, Prostate cell; PC3 (prostate) cells, exposed for 96 hours; read-out: Cytotoxicity activity IC50 (50% inhibition of cell proliferation)
Protocol: as §1

H1299 (lung) = assay: In vitro cytotoxic activity assay (MTT), H1299; format: cell-based; details: Homo sapiens, NCI-H1299; H1299 (lung) cells, exposed for 96 hours; read-out: Cytotoxicity activity IC50 (50% inhibition of cell proliferation)
Protocol: as §1

A375 (melanoma) = assay: In vitro cytotoxic activity assay (MTT), A375; format: cell-based; details: Homo sapiens, A-375; A375 (melanoma) cells, exposed for 96 hours; read-out: Cytotoxicity activity IC50 (50% inhibition of cell proliferation)
Protocol: as §1

MDA-MB-231 (breast) = assay: In vitro cytotoxic activity assay (MTT), MDA-MB-231; format: cell-based; details: Homo sapiens; MDA-MB-231 (breast) cells, exposed for 96 hours; read-out: Cytotoxicity activity IC50 (50% inhibition of cell proliferation)
Protocol: as §1

MCF7 (breast) = assay: In vitro cytotoxic activity assay (MTT), MCF7; format: cell-based; details: Homo sapiens; MCF7 (breast) cells, exposed for 96 hours; read-out: Cytotoxicity activity IC50 (50% inhibition of cell proliferation)
Protocol: as §1

- IC50 [1]: 0.022 µM
Structure (SMILES): O=C1Nc2c(c(Nc3cccc(Cl)c3)nc3cc(C(=O)O)ccc23)C1=O [Compound (1), 4-((3-chlorophenyl)amino)-2,3-dioxo-2,3-dihydro-1H-pyrrolo[3,2-c]quinoline-7-carboxylic acid]
- IC50 (HL60 (leukemia)): 3.6 µM
- IC50 (MIAPaCa-2 (pancreas)): 0.9 µM
- IC50 (HCT116 (colon)): 1.6 µM
- IC50 (PC3 (prostate)): 1.3 µM
- IC50 (H1299 (lung)): 1.9 µM
- IC50 (A375 (melanoma)): 3.2 µM
- IC50 (MDA-MB-231 (breast)): 4.1 µM
- IC50 (MCF7 (breast)): 5.2 µM

— patent US11981675B1, “Pyrrolo[3,2-C]quinoline-2,3-dione compounds as CK2 inhibitors” (KING FAISAL UNIVERSITY, priority 2023, dated 2024)
